Results: PubChem BioAssay AID712 (Emory University Molecular Libraries Screening Center, 2007)
Active and inactive are the calls of the source. The rule behind the calls is not given here.

biological target: Heat shock protein HSP 90-alpha (Homo sapiens) (UniProt P07900); experiment: tumor Hsp90 inhibitor potency, dose response (AID 712); details: Hsp90 inhibition assay

IC50	SMILES
25 µM	Cc1ccc(S(=O)(=O)Nc2ccc(F)c(-c3c(O)ccc4c3OCO4)c2)cc1
> 50 µM (inactive)	COc1ccc2c(c1-c1cc(NS(=O)(=O)c3ccc(C)cc3)ccc1N)OCO2
> 50 µM (inactive)	c1ccc2[nH]c(SCc3ccc(-c4nnco4)cc3)nc2c1
> 50 µM (inactive)	Cc1cccc(NC(=O)Cn2nnc(-c3cccs3)n2)c1C
29.8 µM	COc1ccc(OC)c(-n2c(C)nc3cc(C(=O)O)ccc32)c1
> 50 µM (inactive)	COc1ccc(S(=O)(=O)Nc2ccc(O)c(-c3ccccc3O)c2)cc1OC
12.5 µM	COc1cc(NCCCC(C)N)c2nccc(Cl)c2c1 (centres undefined)
> 50 µM (inactive)	CCN(CC)CC(O)c1ccnc2c(O)cccc12 (centres undefined)
> 50 µM (inactive)	COc1ccc2c(c1-c1cc(NS(=O)(=O)c3cccc([N+](=O)[O-])c3)ccc1N)OCO2
2.41 µM	N#Cc1c(N2CCCC2)nc(N)c2c(N)nc(N3CCCC3)cc12
2.46 µM	Cc1c(-c2nn(C)c(=O)c3ccccc23)oc2ccc(F)cc2c1=O
> 50 µM (inactive)	Nc1ccc(NS(=O)(=O)c2ccccc2[N+](=O)[O-])cc1-c1ccccc1O
13 µM	O=C(O)c1ccccc1C1=Nc2ccc(O)cc2Oc2cc(O)ccc21
> 50 µM (inactive)	O=[N+]([O-])c1ccc(S(=O)(=O)Nc2cc(OCc3ccccc3)cc3cccnc23)cc1F
> 50 µM (inactive)	Oc1c(I)cc(Cl)c2cccnc12
> 50 µM (inactive)	O=c1oc2c3c4c(cc2s1)CCCN4CCC3
> 50 µM (inactive)	O=S(=O)(c1cccc(-c2nnco2)c1)N1CCCC1
> 50 µM (inactive)	C=CCNC(=O)CN(c1cccc(Br)c1)S(C)(=O)=O
> 50 µM (inactive)	CC(OC(=O)c1cccs1)C(=O)NCc1cccs1 (centres undefined)
5.7 µM	CC(=O)Nc1cc(OC(C)=O)c2nonc2c1OC(C)=O
10.9 µM	COC(=O)c1ccc2c(c1)SC1=C(CCCC1=O)N2
> 50 µM (inactive)	CCCCCC(=O)N1CC2(C)CN(C(=O)CCCCC)CC(C)(C1)C2=O
13.5 µM	O=C(NCCCn1ccnc1)c1noc2c1CCc1ccccc1-2
> 50 µM (inactive)	Nc1cc(N)nc(SCC(=O)Nc2nonc2N)n1
> 50 µM (inactive)	CCc1nc(SCC(=O)c2ccc(O)cc2O)n[nH]1
> 50 µM (inactive)	COc1ccc(N2CSC3=C(C#N)C(c4ccc(OC)c(OC)c4)CC(=O)N3C2)c(OC)c1 (centres undefined)
> 50 µM (inactive)	O=C(Cn1cnc2ccccc2c1=O)NCCC(=O)Nc1ccc2c(c1)OCCO2

IC50	SMILES
> 50 µM (inactive)	CCCC(C)C(=O)Nc1cc(OC)ccc1OC (centres undefined)
16.5 µM	Cc1nc(-c2c(-c3ccc(O)cc3O)noc2C(F)(F)F)cs1
> 50 µM (inactive)	CCSCCOC(=O)C1=C(C)NC(=O)NC1c1ccccc1 (centres undefined)
> 50 µM (inactive)	CN(C)C=Nc1c(Br)cc(Br)c2nonc12
> 50 µM (inactive)	O=S(=O)(Nc1ccc(O)c(-c2ccccc2O)c1)c1cc(Cl)ccc1Cl
> 50 µM (inactive)	Cc1occc1C(=O)NC(C)C(C)(C)C (centres undefined)
21.1 µM	OCCN(CCO)c1nc(N2CCCCC2)c2nc(N(CCO)CCO)nc(N3CCCCC3)c2n1
> 50 µM (inactive)	N#CCSc1nnc2[nH]c(=O)cc(N)n12
> 50 µM (inactive)	COc1cc(NCCCC(C)=O)c2nccc(OCc3ccccc3)c2c1
> 50 µM (inactive)	Nc1nonc1N1CCCCC1
> 50 µM (inactive)	O=C(O)CCC(=O)NCc1ccc2[nH]c3c(c2c1)CCCC3
0.74 µM	Oc1ccc(-c2nc(-c3ccc(O)c(O)c3)cs2)cc1
> 50 µM (inactive)	CCSc1nnc2c(n1)OC(c1ccc(C(=O)O)cc1)N(C(C)=O)c1ccccc1-2 (centres undefined)
> 50 µM (inactive)	CC(C)(C)OC(=O)Nc1cccc(NS(=O)(=O)c2cc(Cl)ccc2Cl)c1-c1ccccc1O
15.1 µM	CCOC(=O)c1cnc(SC2CCc3ccccc3C2=O)nc1N (centres undefined)
0.679 µM	CCn1c(CSc2nnc(-c3cccnc3)n2-c2ccccc2C)nc2cc(C(=O)O)ccc21
5.79 µM	O=C1NCCCC2c3cc(O)c4ccccc4c3OC12N1CCCCC1 (centres undefined)
> 50 µM (inactive)	Oc1cc(O)c2ncccc2c1
inactive	Nc1cc(N)c(OCC(F)(F)F)cc1OCC(F)(F)F
13.4 µM	CCn1c(CSc2nccn2C)nc2cc(C(=O)O)ccc21
> 50 µM (inactive)	COc1cc(NCCCC(C)N)c2ncccc2c1 (centres undefined)
inactive	COc1ccc(S(=O)(=O)Nc2ccc3c(c2)OCO3)cc1OC
> 50 µM (inactive)	COC(=O)c1cc(=O)[nH]c2ccc(C)cc12
11.9 µM	Cc1ccc(S(=O)(=O)N2CCC(C(=O)N[C@@H](C)C(=O)Nc3ccc4c(c3)OCO4)CC2)cc1
> 50 µM (inactive)	CC(C)OC(=O)CSc1nc2ccccc2s1
inactive	Cc1ccc(CNc2ccc(O)cc2)cc1
> 50 µM (inactive)	O=C1c2ccccc2C(=O)N1Cc1ccc2c(c1)OCO2
